The text below walks through data of ChEMBL document CHEMBL4834424, “Targeting Chikungunya Virus Replication by Benzoannulene Inhibitors” (J Med Chem, 2021).

Calls of active or inactive are those of the source. The rule behind the calls is not given here.

In data set [1] the test system is Chikungunya virus. Format: functional, organism-based. Conditions: 181-25, NIH3T3, dose 10.0 µM.
Data set [2] concerns Chikungunya virus. Put plainly: Antiviral activity against wild type CHIKV-117 infected in […] cells assessed as viral infectivity in Vero cells at 10 uM measured up to 24 hrs of post infection by supernatant was quantified by plaque assay. Format: functional. Conditions: time hrs <=24.
For data set [3], the system named is Chikungunya virus. Nature of the data set: Antiviral activity against resistance mutation induced CHIKV-117 infected in […] cells assessed as viral infectivity in Vero cells at 10 uM measured up to 24 hrs of post infection by supernatant was quantified by plaque assay. To be noted: time hrs <=24. Format: functional, organism-based.
Data set [4] concerns Chikungunya virus. Put plainly: Antiviral activity against CHIKV 99659 infected in Asian tiger mosquito C6/36 cells assessed as reduction in virus titer in cell supernatant by measuring inhibition of plaque formation using Vero cells and measured following infection of supernatants with Vero cells for 48 hrs pi by serial dilution plaque based methylene blue dye analysis. To be noted: Chikungunya virus, 99659, C6. It is filed as functional.

Data set [5] concerns Chikungunya virus. It is filed as functional, organism-based. Conditions: 181-25, NHDF, dose 20.0 µM, time 13.0 hrs.
In data set [6] the test system is Chikungunya virus. Nature of the data set: Antiviral activity against CHIKV infected in mouse NIH3T3 cells assessed as reduction in virus titer in cell supernatant by measuring inhibition of plaque formation using Vero cells pretreated with NIH3T3 cells followed by infected with virus incubated for 24 hrs and measured following infection of supernatants with Vero cells for 48 hrs by plaque based methylene blue dye analysis. Format: functional. To be noted: dose 10 µM.

Data set [7] relates to Chikungunya virus. Format: functional. To be noted: 181-25, C6, time 48 hrs.
For another data set, the system named is Onyong-nyong virus. Put plainly: Antiviral activity against O'nyong-nyong virus infected in Asian tiger mosquito C6/36 cells assessed as reduction in virus titer in cell supernatant by measuring inhibition of plaque formation using Vero cells and measured following infection of supernatants with Vero cells for 48 hrs pi by serial dilution plaque based methylene blue dye analysis. It is filed as functional.

The next data set relates to Mayaro virus. Put plainly: Antiviral activity against Mayaro virus TRVL infected in Asian tiger mosquito C6/36 cells assessed as reduction in virus titer in cell supernatant by measuring inhibition of plaque formation using Vero cells and measured following infection of supernatants with Vero cells for 48 hrs pi by serial dilution plaque based methylene blue dye analysis. Format: functional.

Data set [8] can be described thus: Antiviral activity against Ross river virus infected in Asian tiger mosquito C6/36 cells assessed as reduction in virus titer in cell supernatant by measuring inhibition of plaque formation using Vero cells and measured following infection of supernatants with Vero cells for 48 hrs pi by serial dilution plaque based methylene blue dye analysis. It is filed as functional. To be noted: […].

The subject of data set [9] is Venezuelan equine encephalitis virus. Put plainly: Antiviral activity against Venezuelan equine encephalitis virus TC83 infected in Asian tiger mosquito C6/36 cells assessed as reduction in virus titer in cell supernatant by measuring inhibition of plaque formation using Vero cells and measured following infection of supernatants with Vero cells for 48 hrs pi by serial dilution plaque based methylene blue dye analysis. It is filed as functional.

In data set [10] the test system is Chikungunya virus. Put plainly: Antiviral activity against CHIKV-nLuc RNA transfected NHDF cells assessed as decrease in Nano-luc signal at 20 uM pretreated 24 hrs before transfection in presence of guanosine measured after 24 hrs by Nano-Glo luciferase assay. Format: functional, organism-based.
For data set [11], the system named is Chikungunya virus. Nature of the data set: Antiviral activity against resistance mutation induced CHIKV-117/119 infected in […] cells assessed as viral infectivity in Vero cells at 10 uM measured up to 24 hrs of post infection by supernatant was quantified by plaque assay. It is filed as functional, organism-based. Conditions: time hrs <=24.
The subject of data set [12] is Chikungunya virus. Nature of the data set: Antiviral activity against CHIKV-nLuc RNA transfected NHDF cells assessed as decrease in CHIKV RNA at 10 uM pretreated 1 hr before transfection measured after 12 hrs by Nano-Glo luciferase assay. It is filed as functional, organism-based. To be noted: time 13.0 hrs.
The test system of data set [13] is Chikungunya virus. Nature of the data set: Antiviral activity against CHIKV infected in human NHDF cells assessed as reduction in virus titer in cell supernatant by measuring inhibition of plaque formation using Vero cells at 10 uM pretreated with NHDF cells followed by infected with virus incubated for 24 hrs and measured following infection of supernatants with Vero cells for 48 hrs by plaque based methylene blue dye analysis. Conditions: time 72 hrs. Format: functional.

For data set [14], the system named is Chikungunya virus. Put plainly: Antiviral activity against CHIKV LR2006-OPY1 infected in Asian tiger mosquito C6/36 cells assessed as reduction in virus titer in cell supernatant by measuring inhibition of plaque formation using Vero cells and measured following infection of supernatants with Vero cells for 48 hrs pi by serial dilution plaque based methylene blue dye analysis. Format: functional.

Data set [15] addresses Dihydroorotate dehydrogenase (quinone), mitochondrial (Homo sapiens, UniProt Q02127).
In data set [16] the test system is Chikungunya virus. Nature of the data set: Antiviral activity against resistance mutation induced CHIKV-119 infected in […] cells assessed as viral infectivity in Vero cells at 10 uM measured up to 24 hrs of post infection by supernatant was quantified by plaque assay. Format: functional, organism-based. Conditions: time hrs <=24.
The test system of a further data set is NHDF. Put plainly: Cytotoxicity against human NHDF cells assessed as cell viability measured after 24 hrs by Cell Titer Glo luminescent assay. It is filed as cell-based. Conditions: nhdf, 24 h. (In general: In ATP-based viability assays light output follows the ATP content of the culture.)
The test system of data set [17] is Chikungunya virus. Nature of the data set: Antiviral activity against CHIKV-nLuc RNA transfected NHDF cells assessed as decrease in Nano-luc signal at 20 uM pretreated 24 hrs before transfection in presence of uridine measured after 24 hrs by Nano-Glo luciferase assay. It is filed as functional, organism-based. To be noted: time 48.0 hrs.
Data set [18] has as its system Chikungunya virus. Put plainly: Antiviral activity against CHIKV infected in human NHDF cells assessed as reduction in virus titer in cell supernatant by measuring inhibition of plaque formation using Vero cells pretreated with NHDF cells followed by infected with virus incubated for 24 hrs and measured following infection of supernatants with Vero cells for 48 hrs by plaque based methylene blue dye analysis. It is filed as functional, organism-based.

The subject of data set [19] is Chikungunya virus. Format: functional, organism-based. To be noted: 181-25, NHDF, dose 20.0 µM, time 13.0 hrs. This is another data set of the same source.
The test system of data set [20] is Chikungunya virus. Nature of the data set: Antiviral activity against CHIKV infected in IFN regulatory factor 3 telomerized human fibroblast cells assessed as reduction in virus titer in cell supernatant by measuring inhibition of plaque formation using Vero cells […] followed by infected with virus incubated for 24 hrs and measured following infection of supernatants with Vero cells for 48 hrs by plaque based …. It is filed as functional. To be noted: time 72 hrs.

For data set [21], the system named is Chikungunya virus. Put plainly: Antiviral activity against CHIKV 37997 infected in Asian tiger mosquito C6/36 cells assessed as reduction in virus titer in cell supernatant by measuring inhibition of plaque formation using Vero cells and measured following infection of supernatants with Vero cells for 48 hrs pi by serial dilution plaque based methylene blue dye analysis. It is filed as functional. To be noted: Chikungunya virus, 37997, C6.

Sequence of Dihydroorotate dehydrogenase (quinone), mitochondrial (Q02127 whole entry): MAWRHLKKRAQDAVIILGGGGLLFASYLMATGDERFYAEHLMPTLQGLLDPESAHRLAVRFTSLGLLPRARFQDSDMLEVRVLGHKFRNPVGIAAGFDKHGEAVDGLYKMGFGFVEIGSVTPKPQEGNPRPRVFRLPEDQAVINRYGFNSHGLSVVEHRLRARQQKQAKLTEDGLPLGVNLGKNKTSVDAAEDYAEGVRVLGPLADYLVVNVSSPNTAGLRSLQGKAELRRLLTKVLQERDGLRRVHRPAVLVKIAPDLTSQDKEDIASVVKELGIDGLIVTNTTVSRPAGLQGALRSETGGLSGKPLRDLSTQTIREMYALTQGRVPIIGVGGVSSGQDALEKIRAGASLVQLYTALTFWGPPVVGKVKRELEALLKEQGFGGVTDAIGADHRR

Turning to `COc1cc2c(cc1NC(=O)c1ccc(C(C)(C)C)cc1)CCCC2`, the outcome in the data set on Chikungunya virus [1], with Chikungunya virus [3], in the data set on Chikungunya virus [10], in the data set with Chikungunya virus [11] and in the data set with Chikungunya virus [16] was Active. Also, the “log(activity)” value with Chikungunya virus [2] is listed as 1.5; in the data set with Chikungunya virus [13], 2.5. Besides, the EC90 – broadly, the point of the concentration-response curve where the effect stands at 90% – came to 1 µM in the data set on Chikungunya virus [4]; 3.16 µM with Chikungunya virus [6]; 1.45 µM in the data set on Chikungunya virus [7]; 0.3 µM with Onyong-nyong virus; 5.1 µM in the data set on Mayaro virus; 0.32 µM in data set [8]. The EC90 in [9] turned out to be 2.1 µM; with Chikungunya virus [14], 0.4 µM; in the data set on Chikungunya virus [20] it was 1.03 µM; with Chikungunya virus [21] it was 3.39 µM. The inhibition result in the data set on Chikungunya virus [5], in the data set on Chikungunya virus [12] and in the data set with Chikungunya virus [19] was “Active” each time. The IC50 (as a rule, the midpoint of a concentration-inhibition curve) in data set [15] was 5 µM. Further, in the data set on NHDF, the CC50 (commonly the concentration giving 50% cytotoxicity) turned out to be 169 µM. In addition, in the data set on Chikungunya virus [17], the outcome was inactive. Further, the EC50 (as a rule, the concentration that produces a half-maximal response) in the data set on Chikungunya virus [18] amounted to 1.45 µM.
